# Source: PubChem BioAssay (NCI)
#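 Following 48 hours of exposure in 96-well plates, responses at five concentrations were used to interpolate endpoints linearly. At the TGI there is no net growth.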
# Columns and labels:
# Test in all cases: growth of human tumour cells (NCI), 48 h
# HOP-92 NSCLC = test system: HOP-92 NSCLC
# HT29 colon = test system: HT29 colon
# SF-539 CNS = test system: SF-539 CNS
# NCI-H23 lung = test system: NCI-H23 lung
# HL-60(TB) leukemia = test system: HL-60(TB) leukemia
# SNB-75 CNS = test system: SNB-75 CNS
# LOX IMVI melanoma = test system: LOX IMVI melanoma
# MDA-MB-231 breast = test system: MDA-MB-231 breast
# NCI-H226 lung = test system: NCI-H226 lung
# HOP-62 NSCLC = test system: HOP-62 NSCLC
# SN12C renal = test system: SN12C renal
# SF-295 CNS = test system: SF-295 CNS
# HCT-15 colon = test system: HCT-15 colon
# OVCAR-5 ovarian = test system: OVCAR-5 ovarian
# SNB-19 CNS = test system: SNB-19 CNS
# HS 578T breast = test system: HS 578T breast
# NCI-H522 lung = test system: NCI-H522 lung
# PC-3 prostate = test system: PC-3 prostate
# NCI-H460 lung = test system: NCI-H460 lung
# 786-0 renal = test system: 786-0 renal
# UACC-257 melanoma = test system: UACC-257 melanoma
# RPMI-8226 leukemia = test system: RPMI-8226 leukemia
# MOLT-4 leukemia = test system: MOLT-4 leukemia
# SK-MEL-2 melanoma = test system: SK-MEL-2 melanoma
# M14 melanoma = test system: M14 melanoma
# SK-OV-3 ovarian = test system: SK-OV-3 ovarian
# COLO 205 colon = test system: COLO 205 colon
# K-562 leukemia = test system: K-562 leukemia
# ACHN renal = test system: ACHN renal
# UACC-62 melanoma = test system: UACC-62 melanoma
# OVCAR-8 ovarian = test system: OVCAR-8 ovarian
# OVCAR-4 ovarian = test system: OVCAR-4 ovarian
# A549 NSCLC = test system: A549 NSCLC
# EKVX NSCLC = test system: EKVX NSCLC
# HCT-116 colon = test system: HCT-116 colon
# MDA-MB-435 = test system: MDA-MB-435
# KM12 colon = test system: KM12 colon
# TK-10 renal = test system: TK-10 renal
# U251 CNS = test system: U251 CNS
# MALME-3M melanoma = test system: MALME-3M melanoma
# SW-620 colon = test system: SW-620 colon
# SK-MEL-5 melanoma = test system: SK-MEL-5 melanoma
# HCC-2998 colon = test system: HCC-2998 colon
# SR leukemia = test system: SR leukemia
# BT-549 breast = test system: BT-549 breast
# OVCAR-3 ovarian = test system: OVCAR-3 ovarian
# CAKI-1 renal = test system: CAKI-1 renal
# IGROV1 ovarian = test system: IGROV1 ovarian
# T-47D breast = test system: T-47D breast
# SK-MEL-28 melanoma = test system: SK-MEL-28 melanoma
# UO-31 renal = test system: UO-31 renal
# SF-268 CNS = test system: SF-268 CNS
# MCF7 breast = test system: MCF7 breast
# RXF 393 renal = test system: RXF 393 renal
# CCRF-CEM leukemia = test system: CCRF-CEM leukemia
# MDA-N = test system: MDA-N
# DU-145 prostate = test system: DU-145 prostate
# NCI/ADR-RES ovarian = test system: NCI/ADR-RES ovarian
# A498 renal = test system: A498 renal
structure (smiles),measurement,setting,value
O=C(CC(Cc1ccccc1)c1ccc(Oc2ccccc2)cc1)Nc1cccc(Cl)c1 (centres undefined),TGI,HOP-92 NSCLC,5.51 µM
same,TGI,HT29 colon,> 100 µM
same,TGI,SF-539 CNS,> 100 µM
same,TGI,NCI-H23 lung,> 100 µM
same,TGI,HL-60(TB) leukemia,10.2 µM
same,TGI,SNB-75 CNS,56.6 µM
same,TGI,LOX IMVI melanoma,49.2 µM
same,TGI,MDA-MB-231 breast,53.8 µM
same,TGI,NCI-H226 lung,73.2 µM
same,TGI,HOP-62 NSCLC,> 100 µM
same,TGI,SN12C renal,> 100 µM
same,TGI,SF-295 CNS,15.4 µM
same,TGI,HCT-15 colon,> 100 µM
same,TGI,OVCAR-5 ovarian,> 100 µM
same,TGI,SNB-19 CNS,> 100 µM
same,TGI,HS 578T breast,> 100 µM
same,TGI,NCI-H522 lung,26.5 µM
same,TGI,PC-3 prostate,27.2 µM
same,TGI,NCI-H460 lung,> 100 µM
same,TGI,786-0 renal,> 100 µM
same,TGI,UACC-257 melanoma,76.2 µM
same,TGI,RPMI-8226 leukemia,17.3 µM
same,TGI,MOLT-4 leukemia,39.3 µM
same,TGI,SK-MEL-2 melanoma,13.6 µM
same,TGI,M14 melanoma,> 100 µM
same,TGI,SK-OV-3 ovarian,> 100 µM
same,TGI,COLO 205 colon,19.3 µM
same,TGI,K-562 leukemia,> 100 µM
same,TGI,ACHN renal,27.1 µM
same,TGI,UACC-62 melanoma,14.8 µM
same,TGI,OVCAR-8 ovarian,> 100 µM
same,TGI,OVCAR-4 ovarian,> 100 µM
same,TGI,A549 NSCLC,> 100 µM
same,TGI,EKVX NSCLC,> 100 µM
same,TGI,HCT-116 colon,> 100 µM
same,TGI,MDA-MB-435,> 100 µM
same,TGI,KM12 colon,> 100 µM
same,TGI,TK-10 renal,> 100 µM
same,TGI,U251 CNS,> 100 µM
same,TGI,MALME-3M melanoma,> 100 µM
same,TGI,SW-620 colon,> 100 µM
same,TGI,SK-MEL-5 melanoma,26.8 µM
same,TGI,HCC-2998 colon,31.8 µM
same,TGI,SR leukemia,47.5 µM
same,TGI,BT-549 breast,75.9 µM
same,TGI,OVCAR-3 ovarian,49.6 µM
same,TGI,CAKI-1 renal,> 100 µM
same,TGI,IGROV1 ovarian,16.3 µM
same,TGI,T-47D breast,8.49 µM
same,TGI,SK-MEL-28 melanoma,> 100 µM
same,TGI,UO-31 renal,> 100 µM
same,TGI,SF-268 CNS,> 100 µM
same,TGI,MCF7 breast,18.3 µM
same,TGI,RXF 393 renal,62.8 µM
same,TGI,CCRF-CEM leukemia,21 µM
same,TGI,MDA-N,> 100 µM
same,TGI,DU-145 prostate,> 100 µM
same,TGI,NCI/ADR-RES ovarian,38.3 µM
same,TGI,A498 renal,26.3 µM
